Here are results for 2 compounds from PMC12751066, “Plastidial phosphoglucose isomerase undergoes thioredoxin-mediated redox modification without altering catalytic activity” (Biochemical Journal, 2025).

Assay [1] has as its target T1, PGI1 (Arabidopsis thaliana, UniProt Q8H103).
T1 construct: homodimer reported as functional unit
T1 sequence (Q8H103 70-613): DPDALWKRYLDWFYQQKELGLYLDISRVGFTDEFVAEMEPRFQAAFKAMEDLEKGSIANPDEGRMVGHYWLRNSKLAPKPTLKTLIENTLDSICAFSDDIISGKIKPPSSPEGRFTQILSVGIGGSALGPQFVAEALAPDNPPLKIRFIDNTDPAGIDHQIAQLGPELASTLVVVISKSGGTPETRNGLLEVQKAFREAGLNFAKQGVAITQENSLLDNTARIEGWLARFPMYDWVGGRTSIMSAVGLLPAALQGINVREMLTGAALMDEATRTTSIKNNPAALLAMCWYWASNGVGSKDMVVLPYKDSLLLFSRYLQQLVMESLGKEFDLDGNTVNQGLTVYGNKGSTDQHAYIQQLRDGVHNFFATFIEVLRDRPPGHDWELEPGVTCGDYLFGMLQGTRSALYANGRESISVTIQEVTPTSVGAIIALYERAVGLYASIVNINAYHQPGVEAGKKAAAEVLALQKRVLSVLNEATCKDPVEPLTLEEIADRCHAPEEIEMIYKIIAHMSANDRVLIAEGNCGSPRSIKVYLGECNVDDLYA
In words: inhibition at varying 6PG concentrations, coupled spectrophotometric assay. Format: biochemical. The note with it: F6P or G6P as substrate; 25 °C; reduced and oxidized PGI1.

Assay [2] addresses T1, PGI1. In words: inhibition at varying E4P concentrations, coupled spectrophotometric assay. The note with it: F6P or G6P as substrate; 25 °C; reduced and oxidized PGI1. Format: biochemical.

Regarding `O=C(O)[C@H](O)[C@@H](O)[C@H](O)[C@H](O)COP(=O)(O)O` [6PG], the “inhibition at varying 6PG concentrations, coupled spectrophotometric assay” value on PGI1 [1] was “PGI1 activity decreased with increasing concentrations of E4P (Figure 9A and B) and 6PG”.
With `O=C[C@H](O)[C@H](O)COP(=O)(O)O` [E4P], the “inhibition at varying E4P concentrations, coupled spectrophotometric assay” value at PGI1 [2] is “PGI1 activity decreased with increasing concentrations of E4P (Figure 9A and B)”.
